Test [1] addresses T1, Type-2 angiotensin II receptor (Rattus norvegicus, UniProt P35351).
T1 sequence (P35351 whole entry): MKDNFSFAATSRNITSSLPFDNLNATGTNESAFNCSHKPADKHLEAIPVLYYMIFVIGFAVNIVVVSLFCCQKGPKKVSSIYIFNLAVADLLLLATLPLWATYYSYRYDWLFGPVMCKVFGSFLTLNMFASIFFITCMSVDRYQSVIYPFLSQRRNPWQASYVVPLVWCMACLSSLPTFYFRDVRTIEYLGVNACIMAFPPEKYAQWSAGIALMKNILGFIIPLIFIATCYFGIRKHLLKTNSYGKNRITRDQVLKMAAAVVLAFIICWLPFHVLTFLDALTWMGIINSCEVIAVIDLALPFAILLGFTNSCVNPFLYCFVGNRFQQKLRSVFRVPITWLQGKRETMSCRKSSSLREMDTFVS
As to the kind of experiment: Compound was evaluated for inhibition of 125I[Sar1,Ile8] aII binding to rat midbrain membrane preparation Angiotensin II receptor, type 2. The class given is tissue-based.

In test [2] the target is T2, Type-1 angiotensin II receptor (Oryctolagus cuniculus, UniProt P34976).
T2 sequence (P34976 whole entry): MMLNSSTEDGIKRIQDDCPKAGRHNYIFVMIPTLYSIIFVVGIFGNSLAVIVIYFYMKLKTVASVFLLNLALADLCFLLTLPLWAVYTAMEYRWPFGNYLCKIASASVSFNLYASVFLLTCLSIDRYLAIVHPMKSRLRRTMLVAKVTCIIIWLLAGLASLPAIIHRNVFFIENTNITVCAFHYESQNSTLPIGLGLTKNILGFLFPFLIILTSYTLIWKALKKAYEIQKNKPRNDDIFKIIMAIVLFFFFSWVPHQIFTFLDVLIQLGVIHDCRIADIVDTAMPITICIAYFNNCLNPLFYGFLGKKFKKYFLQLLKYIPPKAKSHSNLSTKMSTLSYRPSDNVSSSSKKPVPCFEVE
The test is described as follows: Compound was evaluated for inhibition of 125I[Sar1,Ile8] all binding to rabbit aorta Angiotensin II receptor, type 1. In kind it is tissue-based.

SMILES strings stand for the structures.

Usually IC50 stands for the concentration at which inhibition is half-maximal. A low value points to greater potency in that assay.

Consider `CCCCOC(=O)NS(=O)(=O)c1ccc(CCC)cc1-c1ccc(Cn2c(CC)nc3c(C)cc(C)nc32)cc1`, for which the IC50 in test [1] worked out at 3.8 nM; in test [2], 2.1 nM.
The matching figures for `CCCCOC(=O)NS(=O)(=O)c1ccc(C)cc1-c1ccc(Cn2c(CC)nc3c(C)cc(C)nc32)cc1`: 87 nM and 0.2 nM.
Turning to `CCCCOC(=O)NS(=O)(=O)c1ccc(CC)cc1-c1ccc(Cn2c(CC)nc3c(C)cc(C)nc32)cc1`, the IC50 in test [1] worked out at 37 nM; in test [2] it was 1.4 nM.
The matching figures for `CCCCOC(=O)NS(=O)(=O)c1ccccc1-c1ccc(Cn2c(CC)nc3c(C)cc(C)nc32)cc1`: 95 nM and 0.2 nM.

For the origin of these results see ChEMBL document CHEMBL1159160, “L-162,389: a potent orally active angiotensin II receptor antagonist with balanced affinity to both AT1 and AT2 receptor subtypes” (Bioorg Med Chem Lett, 1996).
